Results as given in US8232289B2, “Spiropiperidine compounds as ORL-1 receptor antagonists” (Eli Lilly and Company, priority 2009, dated 2012).
Where two headings read alike, the source gives them in different places. Values belong to the compound of their own block, whether it stands above or below them.

Columns and labels:
[1] = biological target: 5-HT1A (Homo sapiens, UniProt P08908); assay: Radioligand binding selectivity, 5-HT1A
Text: (§1) Similarly, Ki for the mu, kappa and delta opioids, serotonin, dopamine, adrenergic, mucarinic, and histamine receptors, as well as binding to the norepinephrine transporter, sodium channel, chloride channel, and calcium channel may be determined using membranes expressing the desired receptor/transporter/channels and appropriate corresponding radioligand competitor molecules.

[2] = biological target: 5-HT1D (Homo sapiens, UniProt P28221); assay: Radioligand binding selectivity, 5-HT1D
Sequence of 5-HT1D (P28221 whole entry, species assumed): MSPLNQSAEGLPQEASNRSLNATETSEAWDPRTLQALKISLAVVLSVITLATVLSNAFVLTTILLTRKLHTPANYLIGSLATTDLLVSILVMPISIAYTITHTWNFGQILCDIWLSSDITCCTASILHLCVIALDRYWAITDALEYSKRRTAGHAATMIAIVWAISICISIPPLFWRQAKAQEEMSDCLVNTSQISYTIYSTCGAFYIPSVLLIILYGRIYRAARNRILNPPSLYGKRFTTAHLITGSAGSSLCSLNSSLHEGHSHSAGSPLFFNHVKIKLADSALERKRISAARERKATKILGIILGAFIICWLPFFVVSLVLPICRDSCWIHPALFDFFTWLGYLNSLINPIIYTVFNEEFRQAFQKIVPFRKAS
Text: as §1

[3] = biological target: 5-HT1E (Homo sapiens, UniProt P28566); assay: Radioligand binding selectivity, 5-HT1E
Sequence of 5-HT1E (P28566 whole entry, species assumed): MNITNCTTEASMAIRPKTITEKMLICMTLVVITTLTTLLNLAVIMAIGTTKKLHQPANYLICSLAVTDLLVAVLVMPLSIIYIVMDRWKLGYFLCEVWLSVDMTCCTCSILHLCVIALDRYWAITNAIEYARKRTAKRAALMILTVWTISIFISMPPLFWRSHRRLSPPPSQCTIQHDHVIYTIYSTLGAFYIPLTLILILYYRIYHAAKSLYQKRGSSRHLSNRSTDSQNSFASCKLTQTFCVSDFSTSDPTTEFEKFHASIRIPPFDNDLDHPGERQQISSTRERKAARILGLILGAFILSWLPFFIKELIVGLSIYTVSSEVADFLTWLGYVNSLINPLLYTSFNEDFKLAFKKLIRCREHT
Text: as §1

[4] = biological target: 5-HT1F (Homo sapiens, UniProt P30939); assay: Radioligand binding selectivity, 5-HT1F
Sequence of 5-HT1F (P30939 whole entry, species assumed): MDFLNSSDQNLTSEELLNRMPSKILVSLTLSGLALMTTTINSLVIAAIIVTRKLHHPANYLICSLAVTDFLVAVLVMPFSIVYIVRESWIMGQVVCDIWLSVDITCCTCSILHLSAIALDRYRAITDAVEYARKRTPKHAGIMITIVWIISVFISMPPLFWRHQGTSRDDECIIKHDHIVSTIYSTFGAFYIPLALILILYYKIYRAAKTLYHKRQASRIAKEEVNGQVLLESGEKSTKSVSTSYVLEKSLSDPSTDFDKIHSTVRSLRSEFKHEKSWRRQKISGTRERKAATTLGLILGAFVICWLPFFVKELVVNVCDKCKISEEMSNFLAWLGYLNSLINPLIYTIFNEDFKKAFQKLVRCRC
Text: as §1

[5] = biological target: 5-HT2B (Homo sapiens, UniProt P41595); assay: Radioligand binding selectivity, 5-HT2B
Sequence of 5-HT2B (P41595 whole entry, species assumed): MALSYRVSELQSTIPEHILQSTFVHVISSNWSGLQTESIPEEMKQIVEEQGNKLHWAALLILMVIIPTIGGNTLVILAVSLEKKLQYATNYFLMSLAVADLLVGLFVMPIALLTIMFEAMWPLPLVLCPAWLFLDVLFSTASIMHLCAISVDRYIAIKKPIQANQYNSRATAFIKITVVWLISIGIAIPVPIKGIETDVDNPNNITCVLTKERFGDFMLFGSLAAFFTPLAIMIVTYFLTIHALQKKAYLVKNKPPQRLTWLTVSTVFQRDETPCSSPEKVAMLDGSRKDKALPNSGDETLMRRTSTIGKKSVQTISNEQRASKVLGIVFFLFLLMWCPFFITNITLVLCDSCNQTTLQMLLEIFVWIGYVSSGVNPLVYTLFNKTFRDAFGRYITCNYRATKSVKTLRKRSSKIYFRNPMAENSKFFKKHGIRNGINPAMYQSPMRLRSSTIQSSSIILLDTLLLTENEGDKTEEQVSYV
Text: as §1

[6] = biological target: 5-HT2C (Homo sapiens, UniProt P28335); assay: Radioligand binding selectivity, 5-HT2C
Text: as §1

[7] = biological target: 5-HT4 (Homo sapiens, UniProt Q13639); assay: Radioligand binding selectivity, 5-HT4
Text: as §1

[8] = biological target: D2 Dopamine (Homo sapiens, UniProt P14416); assay: Radioligand binding selectivity, D2 Dopamine
Sequence of D2 Dopamine (P14416 whole entry): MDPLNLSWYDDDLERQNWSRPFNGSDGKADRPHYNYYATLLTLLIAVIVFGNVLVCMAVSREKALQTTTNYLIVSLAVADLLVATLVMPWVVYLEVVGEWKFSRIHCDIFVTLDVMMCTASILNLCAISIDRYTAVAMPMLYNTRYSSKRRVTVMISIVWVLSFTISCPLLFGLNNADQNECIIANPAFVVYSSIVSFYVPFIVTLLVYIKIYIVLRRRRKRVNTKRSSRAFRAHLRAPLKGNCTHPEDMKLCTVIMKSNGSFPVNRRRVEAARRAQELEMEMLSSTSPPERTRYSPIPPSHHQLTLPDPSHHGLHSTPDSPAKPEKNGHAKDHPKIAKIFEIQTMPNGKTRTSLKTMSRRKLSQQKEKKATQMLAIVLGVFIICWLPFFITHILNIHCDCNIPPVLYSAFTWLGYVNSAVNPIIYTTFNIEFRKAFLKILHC
Text: as §1

[9] = biological target: Adenosine A3 (Homo sapiens, UniProt P0DMS8); assay: Radioligand binding selectivity, Adenosine A3
Sequence of Adenosine A3 (P0DMS8 whole entry): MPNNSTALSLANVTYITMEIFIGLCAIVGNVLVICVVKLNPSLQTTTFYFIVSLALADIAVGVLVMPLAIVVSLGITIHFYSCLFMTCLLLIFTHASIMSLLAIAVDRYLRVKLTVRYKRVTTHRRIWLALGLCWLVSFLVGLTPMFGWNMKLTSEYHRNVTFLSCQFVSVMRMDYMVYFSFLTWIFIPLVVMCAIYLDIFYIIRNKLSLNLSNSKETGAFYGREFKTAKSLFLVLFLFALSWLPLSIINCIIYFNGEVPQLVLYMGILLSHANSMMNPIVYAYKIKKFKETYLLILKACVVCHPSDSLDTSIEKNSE

[10] = biological target: Adrenergic Alpha1; assay: Radioligand binding selectivity, Adrenergic Alpha1
Text: as §1

[11] = biological target: Adrenergic Beta1 (Homo sapiens, UniProt P08588); assay: Radioligand binding selectivity, Adrenergic Beta1
Text: as §1

[12] = biological target: Adrenergic Beta2 (Homo sapiens, UniProt P07550); assay: Radioligand binding selectivity, Adrenergic Beta2
Sequence of Adrenergic Beta2 (P07550 whole entry): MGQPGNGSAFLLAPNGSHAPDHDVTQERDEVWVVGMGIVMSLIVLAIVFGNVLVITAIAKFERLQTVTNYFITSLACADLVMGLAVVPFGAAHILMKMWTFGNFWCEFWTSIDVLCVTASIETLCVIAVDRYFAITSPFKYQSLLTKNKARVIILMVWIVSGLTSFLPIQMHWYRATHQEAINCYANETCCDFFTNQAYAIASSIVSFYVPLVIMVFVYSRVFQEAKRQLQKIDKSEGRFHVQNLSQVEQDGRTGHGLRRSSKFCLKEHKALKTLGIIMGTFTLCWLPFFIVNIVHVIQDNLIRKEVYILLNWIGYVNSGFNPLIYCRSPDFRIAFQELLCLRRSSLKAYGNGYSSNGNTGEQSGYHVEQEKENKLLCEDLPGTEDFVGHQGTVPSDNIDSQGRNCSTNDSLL
Text: as §1

[13] = biological target: Histamine H1 (Homo sapiens, UniProt P35367); assay: Radioligand binding selectivity, Histamine H1
Sequence of Histamine H1 (P35367 whole entry): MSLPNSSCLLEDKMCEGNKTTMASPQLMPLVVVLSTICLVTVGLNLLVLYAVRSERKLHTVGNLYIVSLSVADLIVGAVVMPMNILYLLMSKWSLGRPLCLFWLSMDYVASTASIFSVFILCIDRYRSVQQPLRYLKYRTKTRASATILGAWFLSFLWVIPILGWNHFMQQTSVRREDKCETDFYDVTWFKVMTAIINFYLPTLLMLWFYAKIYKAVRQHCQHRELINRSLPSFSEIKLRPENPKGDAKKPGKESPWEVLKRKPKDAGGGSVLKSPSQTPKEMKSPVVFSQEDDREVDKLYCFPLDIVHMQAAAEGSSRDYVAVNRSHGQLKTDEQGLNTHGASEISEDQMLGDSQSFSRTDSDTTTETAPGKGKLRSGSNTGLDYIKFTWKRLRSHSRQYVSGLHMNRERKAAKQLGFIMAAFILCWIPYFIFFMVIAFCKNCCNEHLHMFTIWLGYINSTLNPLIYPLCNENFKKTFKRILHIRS
Text: as §1

[14] = biological target: Muscarinic M2 (Homo sapiens, UniProt P08172); assay: Radioligand binding selectivity, Muscarinic M2
Sequence of Muscarinic M2 (P08172 whole entry): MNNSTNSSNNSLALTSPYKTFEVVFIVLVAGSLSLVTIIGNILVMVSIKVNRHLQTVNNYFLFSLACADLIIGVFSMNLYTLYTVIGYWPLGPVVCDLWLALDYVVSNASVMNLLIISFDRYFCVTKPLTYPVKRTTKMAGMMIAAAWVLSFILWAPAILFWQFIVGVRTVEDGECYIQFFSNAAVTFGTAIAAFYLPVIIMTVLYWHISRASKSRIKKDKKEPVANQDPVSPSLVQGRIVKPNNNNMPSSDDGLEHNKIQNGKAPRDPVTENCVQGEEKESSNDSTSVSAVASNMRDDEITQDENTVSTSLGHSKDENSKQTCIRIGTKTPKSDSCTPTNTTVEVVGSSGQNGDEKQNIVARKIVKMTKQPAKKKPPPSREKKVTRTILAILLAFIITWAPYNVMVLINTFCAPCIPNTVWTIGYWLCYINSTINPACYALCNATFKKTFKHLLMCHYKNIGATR
Text: as §1

[15] = biological target: Muscarinic M3 (Homo sapiens, UniProt P20309); assay: Radioligand binding selectivity, Muscarinic M3
Sequence of Muscarinic M3 (P20309 whole entry): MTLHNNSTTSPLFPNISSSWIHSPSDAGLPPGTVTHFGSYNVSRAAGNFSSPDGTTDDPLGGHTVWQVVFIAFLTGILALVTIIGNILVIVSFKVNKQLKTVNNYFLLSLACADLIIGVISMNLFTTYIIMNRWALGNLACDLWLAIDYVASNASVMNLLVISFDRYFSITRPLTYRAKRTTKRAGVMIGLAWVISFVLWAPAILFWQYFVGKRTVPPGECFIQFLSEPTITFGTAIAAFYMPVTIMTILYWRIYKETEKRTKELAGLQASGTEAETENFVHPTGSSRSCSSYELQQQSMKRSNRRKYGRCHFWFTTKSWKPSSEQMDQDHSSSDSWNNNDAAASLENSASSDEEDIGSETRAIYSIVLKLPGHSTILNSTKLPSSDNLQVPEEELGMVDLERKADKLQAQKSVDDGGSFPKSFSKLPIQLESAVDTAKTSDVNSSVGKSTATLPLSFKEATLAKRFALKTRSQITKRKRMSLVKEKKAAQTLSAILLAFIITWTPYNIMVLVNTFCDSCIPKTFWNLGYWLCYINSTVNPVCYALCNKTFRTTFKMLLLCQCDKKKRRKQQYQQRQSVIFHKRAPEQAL
Text: as §1

[16] = biological target: Norepinephrine transporter (Homo sapiens, UniProt P23975); assay: Radioligand binding selectivity, Norepinephrine transporter
Sequence of Norepinephrine transporter (P23975 whole entry, species assumed): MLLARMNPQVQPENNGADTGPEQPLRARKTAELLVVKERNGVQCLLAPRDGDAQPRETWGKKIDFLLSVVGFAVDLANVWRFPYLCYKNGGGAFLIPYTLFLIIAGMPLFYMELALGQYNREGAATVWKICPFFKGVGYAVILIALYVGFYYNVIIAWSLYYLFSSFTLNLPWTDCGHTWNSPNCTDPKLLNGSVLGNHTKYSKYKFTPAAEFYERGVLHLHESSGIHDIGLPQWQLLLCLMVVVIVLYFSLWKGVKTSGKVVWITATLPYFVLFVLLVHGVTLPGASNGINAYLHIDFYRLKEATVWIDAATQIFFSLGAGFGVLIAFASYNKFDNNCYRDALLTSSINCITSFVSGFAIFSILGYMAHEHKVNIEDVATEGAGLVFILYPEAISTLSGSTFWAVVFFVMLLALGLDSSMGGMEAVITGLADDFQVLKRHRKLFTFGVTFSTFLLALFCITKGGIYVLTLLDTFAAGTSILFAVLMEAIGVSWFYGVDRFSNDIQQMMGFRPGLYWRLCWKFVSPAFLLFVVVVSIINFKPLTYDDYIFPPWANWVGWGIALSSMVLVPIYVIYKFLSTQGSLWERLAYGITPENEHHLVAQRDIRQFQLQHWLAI
Text: as §1

[17] = biological target: Na+ channel; assay: Radioligand binding selectivity, Na+ channel
Text: as §1

[18] = biological target: Cl− channel; assay: Radioligand binding selectivity, Cl− channel
Text: as §1

[19] = biological target: Ca+2 channel (diltiazem site); assay: Radioligand binding selectivity, Ca+2 channel (diltiazem site)
Text: as §1

[20] = biological target: Ca+2 channel (verapamil site); assay: Radioligand binding selectivity, Ca+2 channel (verapamil site)
Text: as §1

[21] = test system: 129S6 wild type and nociceptin/ORL1 receptor knockout mice; assay: mFST in wild type and ORL-1 knockout mice; format: in vivo
Text: mFST is an established in vivo assay for antidepressant activity (Li et al. J Pharmacol Exp Ther. 319(1):254-9, 2006.). […] The mFST was used to evaluate potential antidepressant-like activity of novel nociceptin/ORL1 antagonists according to previously published methods (Li et al. J Pharmacol Exp Ther. 319(1):254-9, 2006.). Briefly, male NIH-Swiss mice (Harlan Sprague-Dawley, Indianapolis, Ind.) weighing between 25-30 g are used. Group housed animals are removed from the vivarium to the testing area in their own cages and allowed to adapt to the new environment for at least 1 hour before testing. Alternatively, male 129S6 wild type and nociceptin/ORL1 receptor knockout mice were used to confirm dependence of the response to compound was nociceptin/ORL1 receptor dependent. All compounds are prepared in 20% Captisol, 25 mM phosphate buffer, pH 2.0 on the day of use. Mice are placed in a cylinder (diameter: 10 cm; height: 25 cm) filled with 6 cm of water (22-25° C.) for 6 min. The duration of immobility during the last 4 min. of the 6 min. period of the test was scored. A mouse is recorded as immobile when floating motionless or making only those movements necessary to keep its head above water.
Yet further, these effects of reduced immobilization times are not observed when ORL-1 knockout mice, a strain of mice engineered to lack the ORL-1 receptor, are used, showing that the effect is indeed mediated by the ORL-1 receptor.

SMILES: O=C(O)C(O)C(O)C(=O)O.OCc1nn(-c2ncccc2F)cc1CN1CCC2(CC1)OCC(F)(F)c1cc(Cl)sc12 [Example 53, [4-[(2-Chloro-4,4-difluoro-spiro[5H-thieno[2,3-c]pyran-7,4′-piperidine]-1′-yl)methyl]-1-(3-fluoro-2-pyridyl)pyrazol-3-yl]methanol (L)-Tartrate]
Ki [1]: > 3.18 µM
Ki [2]: > 8.55 µM
Ki [3]: > 5.37 µM
Ki [4]: > 8.52 µM
Ki [5]: 0.22 µM
Ki [6]: > 5.65 µM
Ki [7]: > 4.12 µM
Ki [8]: > 5 µM
Ki [9]: > 5 µM
Ki [10]: > 5 µM
Ki [11]: > 5 µM
Ki [12]: > 5 µM
Ki [13]: > 5 µM
Ki [14]: > 5 µM
Ki [15]: > 5 µM
Ki [16]: > 0.5 µM
Ki [17]: > 0.5 µM
Ki [18]: > 0.5 µM
Ki [19]: > 0.5 µM
Ki [20]: > 5 µM

Ki ([1]; read-out: Ki 5-HT1A): > 3.18 µM
Ki ([2]; read-out: Ki 5-HT1D): > 8.55 µM
Ki ([3]; read-out: Ki 5-HT1E): > 5.37 µM
Ki ([4]; read-out: Ki 5-HT1F): > 8.52 µM
Ki ([5]; read-out: Ki 5-HT2B): 0.693 µM
Ki ([6]; read-out: Ki 5-HT2C): > 5.65 µM
Ki ([7]; read-out: Ki 5-HT4): > 4.12 µM
Ki ([8]; read-out: Ki D2 Dopamine): > 5 µM
Ki [9]: > 5 µM
Ki [10]: > 5 µM
Ki [11]: > 5 µM
Ki [12]: > 5 µM
Ki [13]: > 5 µM
Ki ([14]; read-out: Ki Muscarinic M2): > 0.5 µM
Ki ([15]; read-out: Ki Muscarinic M3): > 5 µM
Ki ([16]; read-out: Ki Norepinephrine transporter): > 0.5 µM
Ki [17]: 0.235 µM
Ki [18]: > 0.5 µM
Ki [19]: > 0.5 µM
Ki [20]: > 0.5 µM
SMILES: Cc1nn(-c2ncccc2CO)cc1CN1CCC2(CC1)OCC(F)(F)c1cc(Cl)sc12 [Example 62, [2-[4-[(2-Chloro-4,4-difluoro-spiro[5H-thieno[2,3-c]pyran-7,4′-piperidine]-1′-yl)methyl]-3-methyl-pyrazol-1-yl]-3-pyridyl]methanol]
effect on immobilization time ([21]; ORL-1 knockout mice): no effect
effect on immobilization time ([21]; wild type mice): significantly reduce the immobilization time
